This is an account of results in patent US5444069A, “Imidazo-pyridine angiotensin II antagonists used to treat memory loss” (Warner-Lambert Company, priority 1994, dated 1995).

The target of data set [1] is T1, AT2 receptor (rabbit uterus receptor preparations) (Oryctolagus cuniculus, UniProt G1T351).
T1 construct: cell membrane preparations derived from rabbit uterus and corpus luteum; from tissue; host or cells: rabbit uterus, cell membrane preparation
T1 sequence (G1T351 1-363): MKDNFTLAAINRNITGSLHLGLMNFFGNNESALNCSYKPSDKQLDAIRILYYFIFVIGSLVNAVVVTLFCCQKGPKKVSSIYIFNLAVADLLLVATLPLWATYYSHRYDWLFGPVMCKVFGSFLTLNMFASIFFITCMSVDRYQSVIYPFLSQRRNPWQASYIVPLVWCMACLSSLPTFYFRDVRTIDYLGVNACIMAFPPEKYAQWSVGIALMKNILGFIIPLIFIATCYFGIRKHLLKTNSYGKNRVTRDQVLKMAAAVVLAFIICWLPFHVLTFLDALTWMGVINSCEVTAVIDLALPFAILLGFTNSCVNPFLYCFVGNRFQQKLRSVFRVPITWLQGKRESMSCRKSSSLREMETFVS
Briefly: displacement of 3H-angiotensin II from rabbit uterus receptor preparations. In kind it is binding. The following applies: read-out: IC50 Values in Rabbit Uterine Preparations. The text has this: AT2 receptors are known to exist in organs of the female reproductive system. […] More specifically, AT2 receptors are densely located on granulosa cells in atretic follicles of the ovary.
On the technique in general: Displacement assays read how much labelled ligand stays bound in the presence of the test substance.

Data set [2] relates to rat striatum acetylcholine (ACh). Briefly: effect on rat striatal acetylcholine (ACh) levels. In kind it is in vivo. The note with it: 0.5 h, ± SEM, vehicle 61.0 ± 2.33, * p < 0.05. As to the method: ACh concentrations were determined as described below. Each
Results were analyzed by a oneway

A short description of data set [3]: whole body autoradiography in rats. It counts as in vivo, rat. As to the method: The iodination was initiated by addition of chloramine-T (30 μg, 132 nMol) that was diluted to a concentration of 0.05 M in the same buffer as above. After shaking at room temperature for one minute the reaction was quenched with sodium metabisulfite (10 mg). […] This labeled material was reconstituted in 5% aqueous dextrose containing 30 mg/mL of the disodium salt of unlabeled Example 12 and adjusted to pH 9 by addition of several μL of 1 mM NaOH.
Male and female Sprague-Dawley rats (Charles River, Wilmington, average weight 281 g) were used in the autoradiography studies. Animals were on a fixed light cycle with unrestricted access to normal rat chow and water prior to the experiment. […] Animals were killed at 15 or 60 minutes postdose by halothane anesthesia and were rapidly frozen in acetone with dry ice. Carcasses were subsequently embedded in methylcellulose ice for whole-body sectioning and autoradiography. Autoradiograms were analyzed by computer assisted densitometry.
Results of the autoradiographical experiments are summarized in Table X. A relative scale of radioactivity is assigned with background equal to 0 and the most dense reading (liver and intestines) equal to 10. […] Another site that is highly labeled is the ovarian follicle. It is the most highly labeled non-excretory organ. All other tissues show weaker radioactivity.

Data set [4] deals with T2, AT2 receptor (whole rat brain) (Rattus norvegicus, UniProt P35351).
T2 construct: IC50 Values in whole Rat Brain Preparations; from tissue; host or cells: whole rat brain
T2 sequence (P35351 1-363): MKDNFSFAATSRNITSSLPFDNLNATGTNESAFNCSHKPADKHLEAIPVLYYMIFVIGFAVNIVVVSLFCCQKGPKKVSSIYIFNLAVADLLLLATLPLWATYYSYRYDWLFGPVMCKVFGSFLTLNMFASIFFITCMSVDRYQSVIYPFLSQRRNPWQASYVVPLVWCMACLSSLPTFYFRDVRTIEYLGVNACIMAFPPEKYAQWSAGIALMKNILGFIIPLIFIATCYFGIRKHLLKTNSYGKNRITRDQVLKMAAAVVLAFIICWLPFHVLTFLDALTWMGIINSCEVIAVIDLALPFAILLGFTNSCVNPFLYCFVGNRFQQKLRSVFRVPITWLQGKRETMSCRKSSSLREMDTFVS
Description: angiotensin II receptor binding in whole rat brain (DTT protocol). The note with it: whole rat brain; DTT included to eliminate AT1 binding; read-out: IC50 Values in whole Rat Brain Preparations. The source says:
Since receptor-specific binding in whole brain is low and is a mixture of two subtypes, an alternative protocol (Bennett and Snyder, Eur. J. Pharmacol., 67, 11-25) was used. This method includes DTT and thereby eliminates binding at AT1 receptors, thus-allowing evaluation of AT2 receptor events.

For data set [5] the following is noted: Barnes et al., Neuroreport 1991, cited from earlier work.
Data set [6] deals with angiotensin II induced secretion of AVP. The following applies: isolated rat explants; Schiavone et al., Hypertension 1991; cited from earlier work.
For data set [7], the system named is angiotensin II receptors (AT1 and AT2), rat brain regions. Description: displacement of 125I-angiotensin II from receptor preparations of rat brain regions. The following applies: antagonist 10 μM. It counts as binding.
Description: The concentration of all three antagonist compounds in these experiments is 1 μM (above the maximal effect concentration).
Data set [8] relates to angiotensin II receptors (AT1/AT2) of granulosa cell. The note with it: 1 μM; 125I-angiotensin II; adapted from Pucell et al., Endocrinology 1991; cited from earlier work.
The subject of data set [9] is angiotensin II receptors (AT1/AT2) of corpus luteum. Description: inhibition of 125I-angiotensin II binding, corpus luteum. Also noted: species or system rabbit.
Where [10] appears, read: 30 mg/kg i.v. rat, scale 0-10, represents excretion.

Turning to `CC(=O)Nc1ccc(Cn2cnc3c2C[C@@H](C(=O)O)N(C(=O)C(c2ccccc2)c2ccccc2)C3)cc1C` [Example 11, (S)-(-)-[[4-(acetylamino)-3-methylphenyl]methyl]-5-(diphenylacetyl)-4,5,6,7-tetrahydro-1H-imidazo-[4,5-c]pyridine-6-carboxylic acid], the IC50 in data set [1] was 150 nM.
For `O=C(CCCN1CCC(O)(c2ccc(Cl)cc2)CC1)c1ccc(F)cc1` [Haloperidol, haloperidol, reference compound], in data set [2] (2 mg/kg IP), the “ACh concentration, rat striatum” value is 36.9 ± 3.27 nM/g.
As to `Cc1cc(Cn2cnc3c2C[C@@H](C(=O)O)N(C(=O)C(c2ccccc2)c2ccccc2)C3)cc([125I])c1O` [^125 CI-Example 12], in data set [3] (30 mg/kg i.v. rat, scale 0-10), the “Relative Radioactivity, Adrenal” value is given as 3; the “Relative Radioactivity, Blood” value is 4; the “Relative Radioactivity, Heart” value is 3; the “Relative Radioactivity, Kidney” value was 4-8. For the same compound, in [3] (30 mg/kg i.v. rat, scale 0-10), the “Relative Radioactivity, Lung” value is listed as 4; the “Relative Radioactivity, Ovarian follicle” value came out at 9; the “Relative Radioactivity, Ovary (non-follicular)” value is 3-5; the “Relative Radioactivity, Salivary gland” value was 6-7. In [3] (30 mg/kg i.v. rat, scale 0-10), the “Relative Radioactivity, Thymus” value worked out at 3 and the “Relative Radioactivity, Uterus” value is 2-3. Further, in data set [3] (setting [10]), the “Relative Radioactivity, Bladder” value is listed as 4-6; the “Relative Radioactivity, Intestines” value is reported as 10; the “Relative Radioactivity, Liver” value stood at 10. In data set [3] (30 mg/kg i.v. rat, scale background 0 to most dense 10), the “Relative Radioactivity, Testicle” value is 1-2.
For `Cc1cc(Cn2cnc3c2C[C@@H](C(=O)O)N(C(=O)C(c2ccccc2)c2ccccc2)C3)cc(I)c1O` [Example 12, (S)-(-)-5-(diphenylacetyl)-1-[(4-hydroxy-3-iodo-5-methylphenyl)methyl]-4,5,6,7-tetrahydro-1H-imidazo[4,5-c]pyridine-6-carboxylic acid], the figures for the IC50 in data set [1] and in data set [4] were 25 nM and 570 nM, respectively. In data set [3] (rat, autoradiography), the “tissue distribution (in words)” value is recorded as “selectively distribute to the ovarian follicle”.
For the compound `COc1ccc(Cn2cnc3c2C[C@@H](C(=O)O)N(C(=O)C(c2ccc(Cl)cc2)c2ccc(Cl)cc2)C3)cc1C` [Example 10, (S)-(-)-5-[bis(4-chlorophenyl)acetyl]-4,5,6,7-tetrahydro-1-[(4-methoxy-3-methylphenyl)methyl]-1H-imidazo-[4,5-c]pyridine-6-carboxylic acid], the IC50 in [1] was determined as 120 nM.
The same measure, in the same setting: the result for `COc1ccc(Cn2cnc3c2C[C@@H](C(=O)O)N(C(=O)C(c2ccccc2)c2ccccc2)C3)cc1C` [Example 3, (S)-(-)-5-(diphenylacetyl)-4,5,6,7-tetrahydro-1-[(4-methoxy-3-methyl-phenyl)methyl]-1H-imidazo[4,5-c]pyridine-6-carboxylic acid] reads 26 nM.
Regarding `Cc1cccc(Cn2cnc3c2C[C@@H](C(=O)O)N(C(=O)C(c2ccccc2)c2ccccc2)C3)c1` [Example 16, (S)-(-)-5-(diphenylacetyl)-4,5,6,7-tetrahydro-1-[(3-methylphenyl)methyl]-1H-imidazo[4,5-c]pyridine-6-carboxylic acid], the IC50 in data set [4] is 1600 nM.
For `Cc1cc(Cn2cnc3c2C[C@@H](C(=O)O)N(C(=O)C(c2ccccc2)c2ccccc2)C3)ccc1N` [Example 2, (S)-(-)-1-[(4-amino-3-methylphenyl)-methyl]-5-(diphenylacetyl)-4,5,6,7-tetrahydro-1H-imidazo[4,5-c]pyridine-6-carboxylic acid], in data set [1], the IC50 stood at 32 nM. Moreover, the “reversal of scopolamine-induced amnesia” value in data set [5] is given as “reverses scopalamine-induced amnesia”. In addition, in data set [5] (rodent behavioral models), the cognition enhancement result is given as “does indeed possess cognition enhancing actions in rodent behavioral models”. Further, in data set [6], the “antagonism of angiotensin II induced AVP secretion” value was “antagonizing the angiotensin II induced secretion of AVP”.
For the compound `COc1ccc(Cn2cnc3c2C[C@@H](C(=O)O)N(C(=O)Cc2ccccc2)C3)cc1C` [Example 9, (S)-(-)-4,5,6,7-tetrahydro-1-[(4-methoxy-3-methylphenyl)methyl]-5-(phenylacetyl)-1H-imidazo-[4,5-c]pyridine-6-carboxylic acid], the IC50 in data set [1] was 95 nM.
With `O=C(O)[C@@H]1Cc2c(ncn2Cc2ccccc2)CN1C(=O)C(c1ccccc1)c1ccccc1` [Example 8, (S)-(-)-5-(diphenylacetyl)-4,5,6,7-tetrahydro-1-(phenylmethyl)-1H-imidazo[4,5-c]pyridine-6-carboxylic acid], the IC50 in data set [1] is 74 nM; in data set [4], 3800 nM.
Taken in the same sequence, the figures for `O=C(O)[C@@H]1Cc2c(ncn2CCC23CC4CC(CC(C4)C2)C3)CN1C(=O)C(c1ccccc1)c1ccccc1` [Example 4] were 91 nM and 180 nM.
For the compound `COc1ccc(Cn2cnc3c2C[C@@H](C(=O)O)N(C(=O)C2c4ccccc4-c4ccccc42)C3)cc1C` [Example 6], in [1], the IC50 turned out to be 1200 nM.
Still for that read-out and setting: the result for `Cc1cc(Cn2cnc3c2C[C@@H](C(=O)O)N(C(=O)C(c2ccccc2)c2ccccc2)C3)ccc1[N+](=O)[O-]` [Example 7] reads 67 nM.
For `CNCC(=O)N[C@@H](CCCN=C(N)N)C(=O)N[C@H](C(=O)N[C@@H](Cc1ccc(O)cc1)C(=O)N[C@H](C(=O)N[C@@H](Cc1cnc[nH]1)C(=O)N1CCC[C@H]1C(=O)N[C@@H](C)C(=O)O)C(C)C)C(C)C` [SAR, saralasin, reference compound], the “125I-Angiotensin II Bound, Brain Stem” value in [7] (rat brain stem, total 2124) is 288 cpm. The “125I-Angiotensin II Bound, Cerebellum” value in data set [7] (rat cerebellum, total 571) was determined as 269 cpm. Also, the “125I-Angiotensin II Bound, Cortex” value in data set [7] (rat cortex, total 766) worked out at 336 cpm. Besides, the “125I-Angiotensin II Bound, Cortical Neurons” value in data set [7] (rat cortical neurons, total 2647) was 293 cpm. The “125I-Angiotensin II Bound, Striatal Membrane” value in data set [7] (rat striatal membrane, total 2462) was determined as 1295 cpm.
For `CCCCc1nc(Cl)c(CO)n1Cc1ccc(-c2ccccc2-c2nn[nH]n2)cc1` [DUP 753, reference compound], in [2] (30 mg/kg IP), the “ACh concentration, rat striatum” value was 67.5 ± 5.71 nM/g. Besides, in data set [8], the “% Inhibition with 1 μM Antagonist, Granulosa cell” value is 3%. The “% Inhibition with 1 μM Antagonist, Corpus luteum” value in [9] (1 μM, 125I-angiotensin II, data from Warner-Lambert Co.) turned out to be 97%. In addition, the “displacement of 125I-angiotensin II, corpus luteum (in words)” value in data set [9] (Table IX) is listed as “displaces nearly all of the radioligand”.
On to `Cc1cc(Cn2cnc3c2C[C@@H](C(=O)O)N(C(=O)C(c2ccc(F)cc2)c2ccc(F)cc2)C3)ccc1N(C)C` [Example 5, (S)-(-)-5-[bis(4-fluorophenyl)acetyl)-1-[[4-(dimethylamino)-3-methyl-phenyl]methyl]-4,5,6,7-tetrahydro-1H-imidazo[4,5-c]pyridine-6-carboxylic acid], for which the IC50 in [1] was found to be 38 nM.
As for `O=C(O)[C@@H]1Cc2c(ncn2Cc2ccc(C(F)(F)F)cc2)CN1C(=O)C(c1ccccc1)c1ccccc1` [Example 15, (S)-(-)-5-(diphenylacetyl)-4,5,6,7-tetrahydro-1-[[4-(trifluoromethyl)-phenyl]methyl]-1H-imidazo[4,5-c]pyridine-6-carboxylic acid], in data set [4], the IC50 is 780 nM.
